Patent US20120141589A1, “PARTICLES FOR DRUG DELIVERY AND OTHER APPLICATIONS” (BASF SE, priority 2010, published 2012)

Tests used:
[1] = Dissolution test of drug/CaCO3 hybrid particles against raw drug crystals, flow-through UV-Vis; type: physicochemical; conditions: drug in CaCO3 hybrid particles; 10 mM SDS, pH 1.5 (HCl), 37° C., sink conditions, monitored at 290 nm
Description: In this example, the dissolution rates of the particles were determined, and compared to compared with raw, micron-sized drug crystals.
During the dissolution experiments, for convenience, dissolution media was placed in a dissolution chamber which is typically used for pressure dialysis; no pressure was applied for the measurements described here. The vessel used in these experiments contained a built-in stir bar and the dissolution media was stirred at a rate of approximately one revolution per second. Dissolution media was drawn from the bottom of the vessel, through a 0.1 micron PTFE filter. The media vessel was connected to a flow-through UV-Vis spectrophotometer cell via tubing and the liquid was driven using a peristaltic pump. A flow rate of 8 mL per second was used. The output of the flow-through cell was connected back to the dissolution chamber, so that the flow formed a closed loop; in this manner the volume of the dissolution media was conserved.
All water used was distilled and de-ionized. […] The raw drug powder was not ground. […] All dissolution media was kept at 37° C.

[2] = no UV-vis signal detectable in pure water or acidic water with added HCl
Description: All water used was distilled and de-ionized. These drugs were monitored at a wavelength of 290 nm. Templates were prepared for dissolution testing by grinding pellets in a mortar and pestle into a fine powder. The raw drug powder was not ground. All tests were performed under sink conditions, where the total amount of drug added is less than one third of the saturation concentration. All dissolution media was kept at 37° C.

SMILES | dissolution rate when incorporated into a hybrid structure, compared with raw, micron-sized drug crystals [1] | solubility in water [2]
Clc1ccccc1C(c1ccccc1)(c1ccccc1)n1ccnc1 [chlotrimazole] | enhanced dissolution rates | poorly soluble in water
C[C@]12CC[C@@H]3c4ccc(O)cc4CC[C@H]3[C@@H]1CC[C@@H]2O [estradiol, 17-beta estradiol] | enhanced dissolution rates | 
